Assay results published in US20200231562A1, “NOVEL MACROLIDE ANTIBIOTICS” (HELMHOLTZ-ZENTRUM FÜR INFEKTIONSFORSCHUNG GMBH, priority 2014, published 2020).
In brackets after ≈: the same amount, converted by molar mass.

Assays:
Format in all cases: cell-based
[1] = test system: methicillin-resistant S. aureus (MRSA); experiment: Bouillon dilution assay (MIC90); details: Staphylococcus aureus, tryptic soy broth, 37° C., 16 h
Procedure: (§1) Before incubation, 3 was added in decreasing concentrations ([…] to 12.5 μg/ml). After incubation, the OD600 was measured. The experiment was run in triplicate. Ciprofloxacin was used as a positive control.

S. auricularis A = experiment: Bouillon dilution assay (MIC90); details: Staphylococcus auricularis, tryptic soy broth, 37° C., 16 h
Procedure: as §1

[2] = test system: Bacillus subtilis ATCC 6633; experiment: Agar diffusion assay; details: ATCC6633, 50 μL of 0.5 mg in 1 mL methanol per 7 mm hole, n.a. = no activity observed, read-out: diameter of inhibition zone

Compound: C/C=C(/C)[C@H]1C/C=C(\C)[C@@H](O[C@H]2O[C@H](CO)[C@@H](O)[C@@H]2O)[C@H](OC(=O)CC(C)C)C(=O)C[C@@H](O)[C@H](C)C(=O)O1 [Compound 3, gulmirecin A]
- MIC90 [1]: 23.1 µM (≈ 12.5 µg/mL)
- MIC90 (S. auricularis A): 22.5 µM (≈ 12.2 µg/mL)
- zone of inhibition at 25 µg/hole [2]: 35 mm
